Active and inactive are the calls of the source. The rule behind the calls is not given here.
Assays:
[1] = human, microsomes
[2] = mouse, microsomes
Description: Metabolic stability in mouse microsomes assessed as intrinsic clearance

[3] = rat, microsomes
Mus musculus = experiment: Reduction in blood glucose excursion in ICR mouse at 30 mg/kg, po administered 30 mins prior to glucose challenge by glucose tolerance test; assay type: functional, organism-based; set-up: dose 30 mg/kg
Rattus norvegicus = experiment: Inhibition of DPP4 in po dosed Sprague-Dawley rat plasma; assay type: functional

SMILES | CL [1] | CL [2] | CL [3] | Activity (Mus musculus) | Activity (Rattus norvegicus) | ED50 (Rattus norvegicus; read-out: ID50 (the source's name))
COCCOc1ccc2nc(C3(NC(=O)C[C@H](N)Cc4cc(F)c(F)cc4F)CCS(=O)(=O)CC3)sc2c1 | 46.6 µL/min/mg | 34.1 µL/min/mg | 21.9 µL/min/mg |  |  | 
COCCOc1ccc2nc(C3(NC(=O)C[C@H](N)Cc4cc(F)c(F)cc4F)CCOCC3)sc2c1 | 21.9 µL/min/mg | 22.1 µL/min/mg | 49.6 µL/min/mg | Active | Dose-dependent effect | 2.7 mg/kg
COCCOc1ccc2nc(C3(NC(=O)C[C@H](N)Cc4cc(Cl)ccc4F)CCS(=O)(=O)CC3)sc2c1 | 63.8 µL/min/mg | 33 µL/min/mg | 31.5 µL/min/mg |  |  | 
C[C@]12CC[C@H]3[C@@H](CCC4=CC(=O)CC[C@@]43C)[C@@H]1CC[C@@H]2O [TESTOSTERONE] | 109.3 µL/min/mg | 312.6 µL/min/mg | 375.6 µL/min/mg |  |  | 
COCCOc1ccc2nc(C3(NC(=O)C[C@H](N)Cc4cc(Cl)ccc4F)CCOCC3)sc2c1 | 34.2 µL/min/mg | 28.6 µL/min/mg | 98.1 µL/min/mg |  |  | 
N[C@@H](CC(=O)NC1(c2nc3ccccc3s2)CCS(=O)(=O)CC1)Cc1cc(F)c(F)cc1F | 39.9 µL/min/mg |  | 64.4 µL/min/mg |  |  | 
COc1ccc2nc(C3(NC(=O)C[C@H](N)Cc4ccccc4F)CCS(=O)(=O)CC3)sc2c1 | 26.2 µL/min/mg |  | 51.5 µL/min/mg |  |  | 
COc1ccc2nc(C3(NC(=O)C[C@H](N)Cc4cc(F)c(F)cc4F)CCS(=O)(=O)CC3)sc2c1 | 32.3 µL/min/mg |  | 42.3 µL/min/mg |  |  | 
N[C@@H](CC(=O)NC1(c2nc3ccc(OCCN4CCOCC4)cc3s2)CCS(=O)(=O)CC1)Cc1cc(F)c(F)cc1F | 92.8 µL/min/mg | 34.5 µL/min/mg | 26 µL/min/mg |  |  | 
N[C@@H](CC(=O)NC1(c2nc3ccccc3s2)CCS(=O)(=O)CC1)Cc1ccccc1F | 34.6 µL/min/mg |  | 73.4 µL/min/mg |  |  | 
